The subject of data set [1] is HIV-1NL4-3. Briefly: HIV-1 infectivity assay in TZM-bl reporter cell line (LTR-luciferase, 48 h). It counts as cell-based. Conditions: Human immunodeficiency virus 1, TZM-bl. The method, boiled down:
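TZM-bl cells (HIV-1 LTR-luciferase) infected with HIV-1NL4-3 with compound at 1 μM; luciferase read 48 h later. Percent inhibition normalized to DMSO wild-type infection (0%) and Nef-defective HIV-1 infection (100% of Nef-dependent effect). Viability in uninfected TZM-bl cells by Cell Titer Blue.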

Data set [2] has as its system HIV-1 NL4-3. Briefly: HIV-1 replication in normal donor PBMCs (p24 Gag AlphaLISA). The format is cell-based. As to conditions: Table 1, 4 days, words (Not active, Borderline) where no bound is given. On the procedure:
FIG. 4. Inhibition of HIV-1 replication by compounds disclosed herein in PBMCs. Donor PBMCs were infected with HIV-1 in the presence of inhibitor concentrations ranging from 1 to 1,000 nM or the DMSO carrier solvent as a negative control (0.1% DMSO final). Replication was assessed by p24 Gag AlphaLISA (Perkin Elmer) […]. Each donor was also infected with Nef-defective HIV-1 to establish the baseline for Nef-dependent enhancement of replication in each culture. Cytotoxicity was assessed in uninfected PBMCs over the same incubation period using the CellTiter-Blue assay (Promega). Data were fit by non-linear regression analysis (GraphPad Prism v.7.04) to determine the IC50 and CC50 values shown.
The tables also show data for HIV-1 Replication in normal donor peripheral blood mononuclear cells (PBMCs), which is assay is conducted as follows:
Non-HLA-typed buffy coats (Source: Pittsburgh Central Blood Bank, #E3755) are received and processed within 24 hours of blood donation. PBMCs are isolated via rocking for RBC separation following 1:1 dilution with PBS, followed by Ficoll gradient centrifugation. The lymphocyte fraction is removed and washed several times for a final concentration of ˜150-300×10^6 cells per donor. Cells are activated for 3 days with 1-5 μg/mL PHA (Sigma) and 50 U/mL IL-2. Cells are plated at 750,000 cells/ml and viability is checked at day 3 using the Cell Titer Blue assay (Promega). If cells are >90% viable, then they are infected with HIV-1 NL4-3, wild-type or Δ-Nef mutant (input typically 30-500 pg/mL p24 capsid equivalents) in the presence or absence of Nef inhibitor analogs. IL-2 is included in the media at the time of infection. After 4 days, cells are lysed with 1% Triton X-100 for 1.5 h, checked for viability via Cell Titer Blue, and frozen/stored at −20° C. HIV-1 replication is assessed with a high-sensitivity HIV-1 p24 AlphaLISA assay (Perkin Elmer) in ½-volume 96-well plates, using one-half of the recommended assay volumes for all reagents (including samples). Assays are read on the BioTek Cytation5 instrument; readout is in AlphaUnits and replication in p24 pg/mL is determined using an HIV-1 p24 capsid protein standard included in the Alpha kit.

In data set [3] the target is HIV-1 NefNL4-3 (Human immunodeficiency virus type 1 group M subtype B, UniProt P03406, A33V/T15A/T51N/V11I). In words: Surface plasmon resonance binding to recombinant full-length Nef (NL4-3). As to conditions: for RU30/RUNef (extent of binding): response units at 30 μM relative to Nef immobilized on the SPR chip; for Nef NL4-3 Binding, SPR 1:1 or 2-site fitting KD1: 1:1 Langmuir fit where the KD2 cell says '1 to 1 fitting', else 2-site fit.

Data set [4] deals with TZM-bl cell line. It counts as cell-based. Conditions: human, 1 μM. The method, boiled down: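 Luciferase read-out 48 h post-infection; compound at 1 μM during HIV-1NL4-3 infection of TZM-bl cells. Percent inhibition scaled to DMSO wild-type virus (0%) and DMSO Nef-defective virus (100% of Nef-dependent effect). Viability checked separately in uninfected cells by Cell Titer Blue.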

[5] abbreviates: 1.0 μM, TZM-bl reporter cell line, Table 4, read-out: % Infectivity Inhibition.
The mark [6] stands for this setting: 48 h, Table 1, TZM-bl cells, 1 μM, 48 h, 100% = Nef-defective HIV-1, read-out: HIV-1 Infectivity % Inhibition Norm. to Δ-Nef @ 1 μM.
The mark [7] stands for this setting: Nef NL4-3 Binding, SPR 2-state fitting KD, Table 1, 2-step induced-fit model.
[8] abbreviates: KD, M, Table 4, SPR fit 1:1 Langmuir, KD = koff/kon.
Setting [9] is: Table 4, 1:1 Langmuir fit, T = 1/koff.
Where [10] appears, read: KD, M, Table 4, SPR fit 2-step induced fit, KD = koff/kon × koff2/(koff2 + kon2).
Setting [11] is: Table 4, 2-step induced fit, T = 1/koff2.

Structures are written as SMILES. Where two headings read alike, the source gives them in different places.

On to `Oc1c(CCc2ccc(F)cc2)c(-c2ccc(C(F)(F)F)cc2)nn1-c1nc2ccc(Cl)cc2[nH]1` [Compound I-161, 1-(6-chloro-1H-1,3-benzodiazol-2-yl)-4-[2-(4-fluorophenyl)ethyl]-3-[4-(trifluoromethyl)phenyl]-1H-pyrazol-5-ol], for which the inhibition at 1 µM in data set [1] (setting [5]) amounted to 38.7%. Also, the inhibition at 1 µM in data set [1] (setting [6]) is 38.7%. In addition, the “HIV Replication PBMC IC50 vs. HIV NL4-3” value in data set [2] is given as “Not active”. Besides, the “RU30/RUNef (extent of binding)” value in data set [3] came to 1.44E- 02. In data set [4], the “% Cell Viability” value is 89.9% and the “Percent Viability @ 1 μM (TZM-bl cells)” value is on record as 89.9%.

As for `Oc1c(CCc2ccc(F)cc2)c(-c2cccc(F)c2)nn1-c1nc2ccccc2[nH]1` [Compound I-110, 1-(1H-1,3-benzodiazol-2-yl)-3-(3-fluorophenyl)-4-[2-(4-fluorophenyl)ethyl]-1H-pyrazol-5-ol], the inhibition at 1 µM in data set [1] (setting [6]) stood at 84.9%. Further, the “HIV Replication PBMC IC50 vs. HIV NL4-3” value in data set [2] was “Not active”. Also, the Kd was determined as 2.14 µM in data set [3] (Nef NL4-3 Binding, SPR 1:1 or 2-site fitting KD2, Table 1, 2-site fit, second component) and 0.0302 µM in data set [3] (setting [7]). Besides, the “Percent Viability @ 1 μM (TZM-bl cells)” value in data set [4] was determined as 88.4%.

For the molecule `OCCc1c(-c2ccc(C(F)(F)F)cc2)nn(-c2nc3ccccc3[nH]2)c1O` [Compound I-153, 1-(1H-1,3-benzodiazol-2-yl)-4-(2-hydroxyethyl)-3-[4-(trifluoromethyl)phenyl]-1H-pyrazol-5-ol], the inhibition at 1 µM in data set [1] (setting [5]) is 0%. Besides, in data set [1] (setting [6]), the inhibition at 1 µM is -20.1%. In addition, in data set [3], the Kd worked out at 0.0688 µM and the “RU30/RUNef (extent of binding)” value came out at 9.06E- 04. The Kd in data set [3] (setting [8]) stood at 0.0688 µM. Moreover, the “T, minutes (residence time)” value in data set [3] (setting [9]) is given as 9.31E + 00 minutes. For the same molecule, in data set [4], the “% Cell Viability” value came out at 99.9% and the “Percent Viability @ 1 μM (TZM-bl cells)” value came to 99.9%.

With `CC(C)(C)OC(=O)c1ccc(-c2nn(-c3nc4ccccc4[nH]3)c(O)c2CCc2ccc(F)cc2)cc1` [Compound I-208, tert-butyl 4-[1-(1H-1,3-benzodiazol-2-yl)-4-[2-(4-fluorophenyl)ethyl]-5-hydroxy-1H-pyrazol-3-yl]benzoate], the inhibition at 1 µM in data set [1] (setting [5]) and in data set [1] (setting [6]) was 39.2% in each case. Also, the Kd in data set [3] stood at 13.8 µM; in data set [3] (setting [10]), 67.8 µM; in data set [3] (setting [7]), 67.8 µM. The “T, minutes (residence time)” value in data set [3] (setting [11]) worked out at 3.95E- 02 minutes. In addition, the “RU30/RUNef (extent of binding)” value in data set [3] turned out to be 1.63E- 02. Also, in data set [4], the “% Cell Viability” value is 90.6%. For the same molecule, in data set [4], the “Percent Viability @ 1 μM (TZM-bl cells)” value stood at 90.6%.

With `CCOC(=O)c1nn(-c2nc3ccccc3[nH]2)c(O)c1CCc1ccc(F)cc1` [Compound I-404, ethyl 1-(1H-1,3-benzodiazol-2-yl)-4-[2-(4-fluorophenyl)ethyl]-5-hydroxy-1H-pyrazole-3-carboxylate], in data set [1] (setting [6]), the inhibition at 1 µM turned out to be 1.3%. Further, the Kd in data set [3] came to 0.128 µM. Moreover, the “Percent Viability @ 1 μM (TZM-bl cells)” value in data set [4] came to 100.5%.

For `Oc1c(CC2CCOCC2)c(-c2ccc(F)cc2)nn1-c1nc2cccnc2[nH]1` [Compound I-313, 3-(4-fluorophenyl)-1-{3H-imidazo[4,5-b]pyridin-2-yl}-4-[(oxan-4-yl)methyl]-1H-pyrazol-5-ol], the inhibition at 1 µM in data set [1] (setting [5]) is 33.2%. In addition, the inhibition at 1 µM in data set [1] (setting [6]) is 33.2%. Moreover, in data set [3], the Kd turned out to be 0.48 µM and the “RU30/RUNef (extent of binding)” value is 5.15E- 03. In data set [3] (setting [8]), the Kd is 0.48 µM. Moreover, the “T, minutes (residence time)” value in data set [3] (setting [9]) is 2.92E + 01 minutes. Moreover, in data set [4], the “% Cell Viability” value amounted to 96.7% and the “Percent Viability @ 1 μM (TZM-bl cells)” value was determined as 96.7%.

`Oc1c(CC2CCOCC2)c(C2CCOCC2)nn1-c1nc2cccnc2[nH]1` [Compound I-312, 1-{3H-imidazo[4,5-b]pyridin-2-yl}-3-(oxan-4-yl)-4-[(oxan-4-yl)methyl]-1H-pyrazol-5-ol]: in data set [1] (setting [6]), the inhibition at 1 µM was -33.7%. Moreover, the “Nef NL4-3 Binding, SPR 1:1 or 2-site fitting KD1” value (shortened to “Nef NL4-3 Binding”) in data set [3] (Table 1) was “No Interaction”. In data set [4], the “Percent Viability @ 1 μM (TZM-bl cells)” value came out at 100.1%.

For the molecule `CC(=O)N1CCC(c2c(-c3ccc(C(F)(F)F)cc3)nn(-c3nc4ccccc4[nH]3)c2O)CC1` [Compound I-713, 1-{4-[1-(1H-1,3-benzodiazol-2-yl)-5-hydroxy-3-[4-(trifluoromethyl)phenyl]-1H-pyrazol-4-yl]piperidin-1-yl}ethan-1-one], the inhibition at 1 µM in data set [1] (setting [6]) stood at 27.8%. For the same molecule, in data set [3], the Kd is 378 µM. Moreover, in data set [4], the “Percent Viability @ 1 μM (TZM-bl cells)” value is 76.8%.

`CC(C)(C)OC(=O)N1C[C@@H]2[C@H](C1)[C@H]2c1nn(-c2nc3ccccc3[nH]2)c(O)c1CCc1ccc(F)cc1` [Compound I-209, tert-butyl 6-[1-(1H-1,3-benzodiazol-2-yl)-4-[2-(4-fluorophenyl)ethyl]-5-hydroxy-1H-pyrazol-3-yl]-3-azabicyclo[3.1.0]hexane-3-carboxylate]: the inhibition at 1 µM in data set [1] (setting [5]) and in data set [1] (setting [6]) was 4.2% each time. Moreover, the results for the Kd in data set [3], in data set [3] (setting [10]) and in data set [3] (setting [7]) were 0.776 µM, 4.83 µM and 5.83 µM, respectively. For the same molecule, the “T, minutes (residence time)” value in data set [3] (setting [11]) was determined as 3.81E- 01 minutes. The “RU30/RUNef (extent of binding)” value in data set [3] stood at 8.59E- 03. Moreover, in data set [4], the “% Cell Viability” value came to 100%. Besides, the “Percent Viability @ 1 μM (TZM-bl cells)” value in data set [4] was 100.1%.

Turning to `O=C(C1CCOC1)N1CCC(Cc2nn(-c3nc4ccccc4[nH]3)c(O)c2CCc2ccc(F)cc2)CC1` (stereo not drawn) [Compound I-765, 1-(1H-1,3-benzodiazol-2-yl)-4-[2-(4-fluorophenyl)ethyl]-3-{[1-(oxolane-3-carbonyl)piperidin-4-yl]methyl}-1H-pyrazol-5-ol], the inhibition at 1 µM in data set [1] (setting [6]) worked out at 13.5%. Also, the “Nef NL4-3 Binding” value in data set [3] (Table 1) is “No Interaction”. In data set [4], the “Percent Viability @ 1 μM (TZM-bl cells)” value is reported as 99.3%.

Consider `O=C(OCc1ccccc1)N1CCCC(Cc2nn(-c3nc4ccccc4[nH]3)c(O)c2CCc2ccc(F)cc2)C1` (stereo not drawn) [Compound I-773, benzyl 3-{[1-(1H-1,3-benzodiazol-2-yl)-4-[2-(4-fluorophenyl)ethyl]-5-hydroxy-1H-pyrazol-3-yl]methyl}piperidine-1-carboxylate], for which the inhibition at 1 µM in data set [1] (setting [6]) worked out at 25.5%. The Kd in data set [3] came to 0.0559 µM. Moreover, in data set [4], the “Percent Viability @ 1 μM (TZM-bl cells)” value amounted to 101.8%.

For the molecule `COC(=O)N1CCC(c2nn(-c3nc4cc(Cl)ccc4[nH]3)c(O)c2CCn2nccn2)CC1` [Compound I-705, methyl 4-[1-(5-chloro-1H-1,3-benzodiazol-2-yl)-5-hydroxy-4-[2-(2H-1,2,3-triazol-2-yl)ethyl]-1H-pyrazol-3-yl]piperidine-1-carboxylate], in data set [1] (setting [6]), the inhibition at 1 µM was -13.8%. For the same molecule, the Kd in data set [3] amounted to 1.11 µM. For the same molecule, the “Percent Viability @ 1 μM (TZM-bl cells)” value in data set [4] is listed as 100.9%.

For the molecule `Oc1c(CCc2ccc(F)cc2)c(-c2ccc(C(F)(F)F)cc2)nn1-c1cc(C2CC2)n[nH]1` [Compound I-619, 5′-cyclopropyl-4-[2-(4-fluorophenyl)ethyl]-3-[4-(trifluoromethyl)phenyl]-2′H-[1,3′-bipyrazol]-5-ol], the inhibition at 1 µM in data set [1] (48 h, Table 2, TZM-bl cells, 1 μM, 48 h, 100% = Nef-defective HIV-1, read-out: HIV-1 Infectivity % Inhibition Norm. to Δ-Nef @ 1 μM) came to 0%. Further, the “Nef NL4-3 Binding” value in data set [3] (Table 2) is recorded as “No interaction”. Moreover, the “Percent Viability @ 1 μM (TZM-bl cells)” value in data set [4] came out at 105.5%.

These data come from patent US20220380341A1, “INHIBITORS OF HIV-1 NEF FOR THE TREATMENT OF HIV DISEASE” (priority 2018, published 2022).
